The values below come from publication PMC4278837, “A Cyclic Peptidic Serine Protease Inhibitor: Increasing Affinity by Increasing Peptide Flexibility” (PLoS ONE, 2014).

Square brackets hold non-standard residues; d marks the D form. Peptide text beside a SMILES is read from it. * marks the point of attachment. pNA = O=[N+]([O-])c1ccc(N*)cc1; pGlu = O=C1CC[C@@H](C(=O)O)N1

Holding throughout (conditions): 37°C, HBS with 0.1% BSA
For one experiment, the target named is T1, muPA K41A (Mus musculus, UniProt P06869, K210A).
T1 construct: To ensure that the uPAs purified from the conditioned media were completely in the two-chain form, they were treated with plasmin; hexa-His (C); made in house; host or cells: HEK293 6E suspension cells
The experiment can be described thus: KM for S-2444 hydrolysis by muPA K41A. Type of experiment: biochemical, murine. On the procedure:
(§1) Determination of K M values
(§2) To determine the K M values for hydrolysis of S-2444 (pyro-Glu-Gly-Arg-p-nitroanilide) by the different uPA variants used in the present study, a 200 µL 2-fold dilution series of the substrate (4 - 0 mM for huPA variants, 24 – 0 mM for muPA variants) in a buffer of 10 mM HEPES, pH 7.4, 140 mM NaCl (HEPES-buffered saline, HBS), with 0.1% bovine serum albumin (BSA), was incubated 2 min at 37°C, prior to the addition of a fixed concentration of each protease (approximaterly 2 nM final concentration). The initial reaction velocities (V i), monitored as the changes in absorbance at 405 nm, were plotted against the initial substrate concentration ([S]) and non-linear regression analysis was used to determine the K M according to equation 1: […]
(§3) The K M values for hydrolysis of S-2444 by the uPA variants employed in the present study are listed in S2 Table.

Another experiment has as its target T2, huPA-H99Y K143A (Homo sapiens, UniProt P00749, H272Y/K320A).
T2 construct: To ensure that the uPAs purified from the conditioned media were completely in the two-chain form, they were treated with plasmin; hexa-His (C); made in house; host or cells: HEK293 6E suspension cells
The experiment can be described thus: KM for S-2444 hydrolysis by huPA-H99Y K143A. Type of experiment: biochemical. On the procedure: as §1, §2, §3

The next experiment deals with T3, muPA wt (Mus musculus, UniProt P06869).
T3 construct: To ensure that the uPAs purified from the conditioned media were completely in the two-chain form, they were treated with plasmin; hexa-His (C); made in house; host or cells: HEK293 6E suspension cells
The experiment can be described thus: KM for S-2444 hydrolysis by muPA wt. Type of experiment: biochemical, murine. Here is the method:
as §1, §2, §3

The next experiment concerns the target huPA-H99Y Q192A (Homo sapiens, UniProt P00749, H272Y/Q373A). The experiment can be described thus: KM for S-2444 hydrolysis by huPA-H99Y Q192A. Type of experiment: biochemical. Set-up: hexa-His (C); made in house; host or cells: HEK293 6E suspension cells. On the procedure: as §1, §2, §3
The next experiment has as its target T4, huPA-H99Y V41A (Homo sapiens, UniProt P00749, H272Y/V208A).
T4 construct: To ensure that the uPAs purified from the conditioned media were completely in the two-chain form, they were treated with plasmin; hexa-His (C); made in house; host or cells: HEK293 6E suspension cells
The experiment can be described thus: KM for S-2444 hydrolysis by huPA-H99Y V41A. Format: biochemical. On the procedure: as §1, §2, §3

The target of another experiment is T5, muPA K143A (Mus musculus, UniProt P06869, K322A).
T5 construct: To ensure that the uPAs purified from the conditioned media were completely in the two-chain form, they were treated with plasmin; hexa-His (C); made in house; host or cells: HEK293 6E suspension cells
The experiment can be described thus: KM for S-2444 hydrolysis by muPA K143A. Format: biochemical, murine. On the procedure: as §1, §2, §3

The target in a further experiment is T6, muPA Y99A (Mus musculus, UniProt P06869, Y274A).
T6 construct: To ensure that the uPAs purified from the conditioned media were completely in the two-chain form, they were treated with plasmin; hexa-His (C); made in house; host or cells: HEK293 6E suspension cells
The experiment can be described thus: KM for S-2444 hydrolysis by muPA Y99A. Format: biochemical, murine. Here is the method:
as §1, §2, §3

The target in a further experiment is T7, huPA-H99Y (Homo sapiens, UniProt P00749, H272Y).
T7 construct: To ensure that the uPAs purified from the conditioned media were completely in the two-chain form, they were treated with plasmin; hexa-His (C); made in house; host or cells: HEK293 6E suspension cells
The experiment can be described thus: KM for S-2444 hydrolysis by huPA-H99Y. Type of experiment: biochemical. On the procedure:
as §1, §2, §3

The next experiment concerns the target T8, huPA wt (Homo sapiens, UniProt P00749).
T8 construct: To ensure that the uPAs purified from the conditioned media were completely in the two-chain form, they were treated with plasmin; hexa-His (C); made in house; host or cells: HEK293 6E suspension cells
The experiment can be described thus: KM for S-2444 hydrolysis by huPA wt. Type of experiment: biochemical. On the procedure: as §1, §2, §3

The target in a further experiment is T9, huPA-H99Y R35A (Homo sapiens, UniProt P00749, H272Y/R198A).
T9 construct: To ensure that the uPAs purified from the conditioned media were completely in the two-chain form, they were treated with plasmin; hexa-His (C); made in house; host or cells: HEK293 6E suspension cells
The experiment can be described thus: KM for S-2444 hydrolysis by huPA-H99Y R35A. Type of experiment: biochemical. Here is the method: as §1, §2, §3

The next experiment addresses T10, muPA V213T (Mus musculus, UniProt P06869, V396T).
T10 construct: To ensure that the uPAs purified from the conditioned media were completely in the two-chain form, they were treated with plasmin; hexa-His (C); made in house; host or cells: HEK293 6E suspension cells
The experiment can be described thus: KM for S-2444 hydrolysis by muPA V213T. Format: biochemical, murine. Here is the method: as §1, §2, §3

A further experiment deals with T11, muPA S190A (Mus musculus, UniProt P06869, S373A).
T11 construct: To ensure that the uPAs purified from the conditioned media were completely in the two-chain form, they were treated with plasmin; hexa-His (C); made in house; host or cells: HEK293 6E suspension cells
The experiment can be described thus: KM for S-2444 hydrolysis by muPA S190A. Format: biochemical, murine. Here is the method: as §1, §2, §3

T3 sequence (P06869 180-433 limits assumed): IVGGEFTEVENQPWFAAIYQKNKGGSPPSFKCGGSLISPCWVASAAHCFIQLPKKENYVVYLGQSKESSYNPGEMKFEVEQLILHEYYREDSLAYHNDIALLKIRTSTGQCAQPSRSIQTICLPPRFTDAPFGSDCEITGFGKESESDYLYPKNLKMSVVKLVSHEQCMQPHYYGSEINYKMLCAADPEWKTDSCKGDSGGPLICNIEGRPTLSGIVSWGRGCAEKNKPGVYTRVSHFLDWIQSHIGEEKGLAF
T3 sequence (P06869 21-178 partner limits assumed): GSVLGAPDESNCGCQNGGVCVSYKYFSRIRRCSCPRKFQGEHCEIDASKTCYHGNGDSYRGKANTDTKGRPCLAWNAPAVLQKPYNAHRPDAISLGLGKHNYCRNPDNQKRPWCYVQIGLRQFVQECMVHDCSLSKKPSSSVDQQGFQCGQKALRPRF
T5 sequence (P06869 180-433 K322A): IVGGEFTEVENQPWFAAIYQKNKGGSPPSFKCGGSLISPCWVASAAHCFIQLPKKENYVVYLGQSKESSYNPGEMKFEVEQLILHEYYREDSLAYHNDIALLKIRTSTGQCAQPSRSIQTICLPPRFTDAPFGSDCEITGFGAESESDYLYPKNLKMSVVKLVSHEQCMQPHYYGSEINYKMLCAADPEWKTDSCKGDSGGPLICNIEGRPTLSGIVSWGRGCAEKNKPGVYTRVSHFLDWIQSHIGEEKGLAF
T5 sequence (P06869 21-178 partner limits assumed): as the sequence (P06869 21-178 partner limits assumed) above
T10 sequence (P06869 180-433 V396T): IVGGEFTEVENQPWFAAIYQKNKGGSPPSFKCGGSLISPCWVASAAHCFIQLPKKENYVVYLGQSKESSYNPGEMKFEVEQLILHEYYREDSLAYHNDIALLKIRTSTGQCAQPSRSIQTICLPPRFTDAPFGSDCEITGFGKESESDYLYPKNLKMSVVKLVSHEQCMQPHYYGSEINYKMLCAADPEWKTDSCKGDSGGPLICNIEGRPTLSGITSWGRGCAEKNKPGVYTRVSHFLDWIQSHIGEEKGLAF
T10 sequence (P06869 21-178 partner limits assumed): as the sequence (P06869 21-178 partner limits assumed) above
T6 sequence (P06869 180-433 Y274A): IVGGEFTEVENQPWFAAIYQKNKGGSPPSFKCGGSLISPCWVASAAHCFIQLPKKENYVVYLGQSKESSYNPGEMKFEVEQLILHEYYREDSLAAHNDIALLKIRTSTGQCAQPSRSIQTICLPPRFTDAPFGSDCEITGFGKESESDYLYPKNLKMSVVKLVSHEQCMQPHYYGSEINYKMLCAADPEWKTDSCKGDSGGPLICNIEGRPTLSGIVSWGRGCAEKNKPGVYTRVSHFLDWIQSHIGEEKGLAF
T6 sequence (P06869 21-178 partner limits assumed): as the sequence (P06869 21-178 partner limits assumed) above
T1 sequence (P06869 180-433 K210A): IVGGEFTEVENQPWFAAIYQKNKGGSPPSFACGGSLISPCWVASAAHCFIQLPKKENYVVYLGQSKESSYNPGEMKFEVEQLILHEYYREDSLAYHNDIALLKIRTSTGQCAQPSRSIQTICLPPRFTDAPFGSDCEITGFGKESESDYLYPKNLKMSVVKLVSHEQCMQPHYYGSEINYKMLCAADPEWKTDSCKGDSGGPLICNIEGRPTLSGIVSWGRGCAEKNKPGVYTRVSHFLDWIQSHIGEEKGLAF
T1 sequence (P06869 21-178 partner limits assumed): as the sequence (P06869 21-178 partner limits assumed) above
T11 sequence (P06869 180-433 S373A): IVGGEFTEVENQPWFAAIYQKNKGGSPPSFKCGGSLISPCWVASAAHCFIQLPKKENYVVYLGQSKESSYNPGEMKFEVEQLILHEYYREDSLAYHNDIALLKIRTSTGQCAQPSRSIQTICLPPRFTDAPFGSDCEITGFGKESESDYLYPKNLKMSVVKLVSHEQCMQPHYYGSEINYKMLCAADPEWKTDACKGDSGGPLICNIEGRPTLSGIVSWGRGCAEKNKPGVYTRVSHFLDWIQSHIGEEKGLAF
T11 sequence (P06869 21-178 partner limits assumed): as the sequence (P06869 21-178 partner limits assumed) above

On to `NC(N)=NCCC[C@H](NC(=O)CNC(=O)[C@@H]1CCC(=O)N1)C(=O)Nc1ccc([N+](=O)[O-])cc1` [S-2444, pyro-Glu-Gly-Arg-p-nitroanilide] ([pGlu]-Gly-Arg-pNA), for which the Km on muPA K41A stood at 2500 ± 200 µM; at huPA-H99Y K143A, 500 ± 41 µM; on muPA wt, 2400 ± 200 µM; on huPA-H99Y Q192A it was 904 ± 178 µM; on huPA-H99Y V41A it was 742 ± 73 µM; on muPA K143A, 1000 ± 400 µM. The Km on muPA Y99A amounted to 3600 ± 300 µM; on huPA-H99Y, 610 ± 110 µM; on huPA wt, 87 ± 0.3 µM; on huPA-H99Y R35A, 517 ± 156 µM; at muPA V213T, 868 ± 350 µM; on muPA S190A it was 10800 ± 1000 µM.

For orientation: Km means the substrate concentration at which the rate is half of its maximum.
